Laboratory results from paper PMC11671526, “β-caryophyllene sensitizes hepatocellular carcinoma cells to chemotherapeutics and inhibits cell malignancy through targeting MAPK signaling pathway” (Frontiers in Pharmacology, 2024).

Tested on: HepG2 cells
Assay: RNA-seq transcriptome analysis of differentially expressed genes
Assay type: cell-based, human
Details: BCP vs control HepG2
Method: The quality and concentration of RNA were examined by MOPS RNA electrophoresis and Eppendorf BioSpectrometer. The transcriptome analysis was performed by BGI-Wuhan China. The RNA-seq dataset of this study is accessible in the Gene Expression Omnibus (GEO) with an access number of GSE276099. The sequence library for each sample was prepared using the BGISEQ-500 platform with a 50-bp single-end (SE50) format. […]2.2.1) was used to align the clean reads to the reference genome and alignment of the clean reads to the reference genes was carried out using Bowtie2 (v2.4.5) ([Langmead and Salzberg, 2012]; [Kim et al., 2015]). Gene expression levels were calculated by RSEM (v1.3.1) ([Li and Dewey, 2011]). Analysis of differential gene expression was performed using edgeR in the Bioconductor software package ([Robinson et al., 2010]). Using a standard protocol, the RNA samples were also examined by reverse transcription and quantitative polymerase chain reaction (RT-qPCR). In brief, for reverse transcription, total RNA (1 μg) and gDNA wiper Mix were incubated at 42°C for 2 min. The samples were immediately incubated with a master mix containing 10 pmol/μL of poly (dT) primers at 37°C for 15 min and 85°C for 5 s. To detect the expression of specific genes by qPCR analysis, gene-specific primers (shown in Supplementary Table S1) were mixed with the ChamQ Universal SYBER qPCR Master Mix and the reaction was conducted using the Roche Lightcycler 480. The GAPDH value was used to normalize the results of each gene. The RNA-seq data of BCP-treated HepG2 cells were screened for DEGs. Gene symbols were turned into Enterz ID using the org.Hs.eg.db Bio-conductor R package. The cluster profiler (v4.6.2) package was used to perform the Kyoto Encyclopedia of Genes and Genomes (KEGG) and Gene Ontology (GO) enrichment analyses ([Wu et al., 2021]). Following the Transcript per million (TPM) data of the dataset, the line chart, and heatmap were plotted using ggplot2 and pheatmap R packages, respectively.

## C=C1CC/C=C(\C)CC[C@@H]2[C@@H]1CC2(C)C [BCP, β-caryophyllene]
Gene EGLN3, DEG direction
  change EGLN3: Down
Gene EHF, RNA-seq
  logFC EHF: -2.096
Gene EHF, DEG direction
  change EHF: Down
Gene EPHX1, RNA-seq
  logFC EPHX1: -0.6153
Gene EPHX1, DEG direction
  change EPHX1: Down
Gene ETNPPL, RNA-seq
  logFC ETNPPL: -2.349
Gene ETNPPL, DEG direction
  change ETNPPL: Down
Gene EVA1A, RNA-seq
  logFC EVA1A: -3.085
Gene EVA1A, DEG direction
  change EVA1A: Down
Gene F2RL1, RNA-seq
  logFC F2RL1: -0.7544
Gene F2RL1, DEG direction
  change F2RL1: Down
Gene FAH, RNA-seq
  logFC FAH: 0.7875
Gene FAH, DEG direction
  change FAH: Up
Gene FAM13C, RNA-seq
  logFC FAM13C: 0.699
Gene FAM13C, DEG direction
  change FAM13C: Up
Gene FAM72C, RNA-seq
  logFC FAM72C: 1.971
Gene FAM72C, DEG direction
  change FAM72C: Up
Gene FBXO2, RNA-seq
  logFC FBXO2: -0.7473
Gene FBXO2, DEG direction
  change FBXO2: Down
Gene FBXO27, RNA-seq
  logFC FBXO27: -1.235
Gene FBXO27, DEG direction
  change FBXO27: Down
Gene FBXO44, RNA-seq
  logFC FBXO44: -0.6394
Gene FBXO44, DEG direction
  change FBXO44: Down
Gene FGFBP1, RNA-seq
  logFC FGFBP1: -1.07
Gene FGFBP1, DEG direction
  change FGFBP1: Down
Gene FRMD3, RNA-seq
  logFC FRMD3: -1.073
Gene FRMD3, DEG direction
  change FRMD3: Down
Gene FZD4, RNA-seq
  logFC FZD4: -0.6196
Gene FZD4, DEG direction
  change FZD4: Down
Gene GALNT13, RNA-seq
  logFC GALNT13: 1.877
Gene GALNT13, DEG direction
  change GALNT13: Up
Gene GALNTL6, RNA-seq
  logFC GALNTL6: 1.303
Gene GALNTL6, DEG direction
  change GALNTL6: Up
Gene GBP2, RNA-seq
  logFC GBP2: -1.229
Gene GBP2, DEG direction
  change GBP2: Down
Gene GIPR, RNA-seq
  logFC GIPR: -0.7811
Gene GIPR, DEG direction
  change GIPR: Down
Gene GJB5, RNA-seq
  logFC GJB5: -0.706
Gene GJB5, DEG direction
  change GJB5: Down
Gene GLIS3, RNA-seq
  logFC GLIS3: 0.614
Gene GLIS3, DEG direction
  change GLIS3: Up
Gene GNAZ, RNA-seq
  logFC GNAZ: -0.722
Gene GNAZ, DEG direction
  change GNAZ: Down
Gene GOLGA6L10, RNA-seq
  logFC GOLGA6L10: 2.939
Gene GOLGA6L10, DEG direction
  change GOLGA6L10: Up
Gene GPER1, RNA-seq
  logFC GPER1: -0.7995
Gene GPER1, DEG direction
  change GPER1: Down
Gene GPNMB, RNA-seq
  logFC GPNMB: 0.8482
Gene GPNMB, DEG direction
  change GPNMB: Up
Gene GSDME, RNA-seq
  logFC GSDME: 0.7468
Gene GSDME, DEG direction
  change GSDME: Up
Gene H1-2, RNA-seq
  logFC H1-2: -0.7028
Gene H1-2, DEG direction
  change H1-2: Down
Gene H2AC6, RNA-seq
  logFC H2AC6: -0.6896
Gene H2AC6, DEG direction
  change H2AC6: Down
Gene H2AC18, RNA-seq
  logFC H2AC18: -0.6059
Gene H2AC18, DEG direction
  change H2AC18: Down
Gene H2BC5, RNA-seq
  logFC H2BC5: -0.8919
Gene H2BC5, DEG direction
  change H2BC5: Down
Gene H2BC11, RNA-seq
  logFC H2BC11: -0.8769
Gene H2BC11, DEG direction
  change H2BC11: Down
Gene H2BC12, RNA-seq
  logFC H2BC12: -0.7141
Gene H2BC12, DEG direction
  change H2BC12: Down
Gene H2BC21, RNA-seq
  logFC H2BC21: -0.7522
Gene H2BC21, DEG direction
  change H2BC21: Down
Gene H3C14, RNA-seq
  logFC H3C14: -8.816
Gene H3C14, DEG direction
  change H3C14: Down
Gene H3C15, RNA-seq
  logFC H3C15: 8.416
Gene H3C15, DEG direction
  change H3C15: Up
Gene HHLA2, RNA-seq
  logFC HHLA2: -1.815
Gene HHLA2, DEG direction
  change HHLA2: Down
Gene HIC1, RNA-seq
  logFC HIC1: -1.286
Gene HIC1, DEG direction
  change HIC1: Down
Gene HID1, RNA-seq
  logFC HID1: -3.326
Gene HID1, DEG direction
  change HID1: Down
Gene HJURP, RNA-seq
  logFC HJURP: 0.601
Gene HJURP, DEG direction
  change HJURP: Up
Gene HK1, RNA-seq
  logFC HK1: -0.5879
Gene HK1, DEG direction
  change HK1: Down
Gene HMG20B, RNA-seq
  logFC HMG20B: 0.778
Gene HMG20B, DEG direction
  change HMG20B: Up
Gene HMMR, RNA-seq
  logFC HMMR: 0.8153
Gene HMMR, DEG direction
  change HMMR: Up
Gene HPDL, RNA-seq
  logFC HPDL: -0.6564
Gene HPDL, DEG direction
  change HPDL: Down
Gene HSPA5, RNA-seq
  logFC HSPA5: 0.6968
Gene HSPA5, DEG direction
  change HSPA5: Up
Gene IFI35, RNA-seq
  logFC IFI35: 0.5837
Gene IFI35, DEG direction
  change IFI35: Up
Gene IFITM1, RNA-seq
  logFC IFITM1: -1.457
Gene IFITM1, DEG direction
  change IFITM1: Down
Gene IL34, RNA-seq
  logFC IL34: -0.7177
Gene IL34, DEG direction
  change IL34: Down
Gene IQGAP3, RNA-seq
  logFC IQGAP3: 0.8425
Gene IQGAP3, DEG direction
  change IQGAP3: Up
Gene ITPR1, RNA-seq
  logFC ITPR1: 0.8272
Gene ITPR1, DEG direction
  change ITPR1: Up
Gene KCNH3, RNA-seq
  logFC KCNH3: -0.6893
Gene KCNH3, DEG direction
  change KCNH3: Down
Gene KCNJ18, RNA-seq
  logFC KCNJ18: 0.8616
Gene KCNJ18, DEG direction
  change KCNJ18: Up
Gene KCNK3, RNA-seq
  logFC KCNK3: -0.6699
Gene KCNK3, DEG direction
  change KCNK3: Down
Gene KIAA1614, RNA-seq
  logFC KIAA1614: 0.6603
Gene KIAA1614, DEG direction
  change KIAA1614: Up
Gene KLHDC7B, RNA-seq
  logFC KLHDC7B: 0.8443
Gene KLHDC7B, DEG direction
  change KLHDC7B: Up
Gene KLRG1, RNA-seq
  logFC KLRG1: -1.335
Gene KLRG1, DEG direction
  change KLRG1: Down
Gene LCK, RNA-seq
  logFC LCK: -3.081
Gene LCK, DEG direction
  change LCK: Down
Gene LFNG, RNA-seq
  logFC LFNG: -0.7084
Gene LFNG, DEG direction
  change LFNG: Down
Gene LHFPL2, RNA-seq
  logFC LHFPL2: -0.5801
Gene LHFPL2, DEG direction
  change LHFPL2: Down
Gene LIMS3, RNA-seq
  logFC LIMS3: 8.319
Gene LIMS3, DEG direction
  change LIMS3: Up
